Test results taken from patent US12377083B2 (WUHAN LL SCIENCE AND TECHNOLOGY DEVELOPMENT CO., LTD., priority 2019, dated 2025).

How the values were obtained:
Format in all cases: cell-based
[1] = tested on: A2058 (human melanoma cells); assay: A2058 cell scratch (migration) assay with LPA; settings: 10 μM LPA, scratch area at 24 h
Experimental: The activity of the compounds disclosed herein at the cell level in vitro is evaluated by A2058 (human melanoma cells, Beina Bio, BNCC341099) cell scratch assay. The inhibitory activity of the compounds against LPAR1 can be reflected by inhibition of cell scratch healing.
After the cell confluence reached 80%, the cell culture plate was taken out and the original medium was discarded. Serum-free medium was then added, and the cells were starved overnight in an incubator (37° C., 5% CO2). The cell culture plate was then taken out, and cell scratches were made along the diameter of the wells using a 200 μL pipette tip. The cell culture plate was then added with 500 μL of serum-free medium and then shaken gently to wash away the residual cells on the scratched surface, and this was repeated twice. The medium was discarded and 500 μL of 1% FBS medium containing the compound was then added, and the mixture was incubated at 37° C. for 30 min. […] Olympus CKX53 was used to observe the scratches, and MShot image analysis system was used to take pictures and measure the scratch area at 0 h. The plate was incubated in the incubator under the conditions of 37° C. and 5% CO2. 24 h later, the scratches were observed again with Olympus CKX53, and MShot image analysis system was used to take pictures and measure the scratch area at 24 h. Cell migration inhibition rate was calculated according to the following formula: […]

[2] = In vitro cytotoxicity assay in HepG2 cells, CCK-8 method; settings: human
Experimental: In vitro cytotoxicity assay for the compounds disclosed herein was performed in HepG2 cells using the CCK-8 method. HepG2 cells (Beina Bio) in the logarithmic growth phase were collected, the concentration of cell suspension was adjusted, and then the cells were plated on a 96-well cell culture plate at 50,000 cells/well. The cells were then incubated overnight in a cell incubator (5% CO2, 37° C.), and after 80-90% cell confluence was achieved, test compounds or vehicle (DMSO) at various concentration gradients were added after medium change. The resulting mixture was incubated in the cell incubator (5% CO2, 37° C.) for 48 h. After the treatment, the medium in the plate was discarded. The plate was washed twice with PBS, added with CCK-8 working solution (Beyotime) at 100 μL per well, and then incubated at 37° C. for 1.5 h away from the light. Absorbance at OD450 nm was measured for each well on a microplate reader, and CC50 value of each compound was analyzed and calculated.

[3] = biological target: hLPAR1 (human lysophosphatidic acid receptor 1) (Homo sapiens, UniProt Q92633); assay: FLIPR assay of intracellular calcium increase induced by activation of hLPAR1 expressed in CHO-K1 cells; settings: CHO-K1 cells expressing hLPAR1, agonist oleoyl-L-α-lysophosphatidic acid 1 μM; read-out: LPAR1 IC50
Chain of hLPAR1 (human lysophosphatidic acid receptor 1) (Q92633 whole entry): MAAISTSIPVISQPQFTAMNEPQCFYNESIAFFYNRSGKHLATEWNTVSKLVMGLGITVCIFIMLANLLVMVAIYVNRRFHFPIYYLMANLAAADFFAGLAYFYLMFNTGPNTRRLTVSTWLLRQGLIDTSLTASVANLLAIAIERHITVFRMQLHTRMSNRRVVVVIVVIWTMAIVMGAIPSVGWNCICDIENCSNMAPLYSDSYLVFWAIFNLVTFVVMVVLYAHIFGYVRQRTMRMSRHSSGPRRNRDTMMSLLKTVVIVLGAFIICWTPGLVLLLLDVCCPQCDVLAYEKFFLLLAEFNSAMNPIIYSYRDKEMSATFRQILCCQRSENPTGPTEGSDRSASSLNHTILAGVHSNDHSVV
Experimental: The antagonist property of the compounds disclosed herein was determined using the FLIPR (fluorescence imaging plate reader) method, wherein the compounds are inhibitors for the intracellular calcium increase induced by activation of hLPAR1 (human lysophosphatidic acid receptor 1, accession No. NM_001401.4) expressed in CHO-K1 cells (Chinese hamster ovary cells K1, ATCC).
Cells at 250,000 cells/mL were seeded into a 96-well plate (25,000 cells/well) 18-24 h prior to the FLIPR experiment and then incubated overnight in a cell incubator. […] Each well was added with 75 μL of […] Fluo-4 AM fluorescent dye (Thermo, F14202) and then the cells were subjected to dye-loading incubation at 37° C. for 1.0 h. The 96-well plate was then washed once with buffer, added with a buffer containing a test compound or a vehicle at 50 μL per well and then incubated for 30 min at room temperature. […] An agonist (oleoyl-L-α-lysophosphatidic acid sodium salt (Sigma, L7260)) at a final concentration of 1 μM or a vehicle (ultrapure water) was then added at 50 μL/well, fluorescence values were measured for 2 min at 1-second intervals, and finally the output fluorescence counts were analyzed.

| SMILES | IC50 [3] | Cell migration inhibition rate (%) [1] | CC50 at 48 h [2] |
| --- | --- | --- | --- |
| CN(Cc1ccccc1)C(=O)OCc1nc2cc(O[C@H]3CCC[C@H](C(=O)O)C3)ccc2n1C (racemic) [Compound 22] | 0.3 to 10 µM | C (C: 0-30%) | > 200 µM |
| CN(Cc1ccccc1)C(=O)OCc1nc2c(O[C@H]3CCC[C@H](C(=O)O)C3)cccc2s1 (racemic) [Compound 23, (+/−)-(1S,3S)-3-((2-(((benzyl(methyl)carbamoyl)oxy)methyl)benzo[d]thiazole-4-yl)oxy)cyclohexane-1-carboxylic Acid] | 0.3 to 10 µM | C (C: 0-30%) | > 200 µM |
| CN(Cc1ccccc1)C(=O)OCc1c(-c2ccc(O[C@H]3CCC[C@H](C(=O)O)C3)cc2)ncn1C (racemic) [Compound 24] | 0.3 to 10 µM | C (C: 0-30%) | > 200 µM |
| CN(C(=O)OCc1ocnc1-c1ccc(O[C@H]2CCC[C@H](C(=O)O)C2)c(C(F)(F)F)n1)C1CCCC1 (racemic) [Compound 25] | 0.3 to 10 µM | B (B: 30-50%) | > 200 µM |
| Cc1nc(-c2ncoc2COC(=O)N(C)C2CCCC2)ccc1O[C@H]1CCC[C@H](C(=O)O)C1 (racemic) [Compound 26] | 0.3 to 10 µM | C (C: 0-30%) | > 200 µM |
| Cc1n[nH]c(-c2ccc(O[C@H]3CCC[C@H](C(=O)O)C3)cc2)c1COC(=O)N(C)C1CCCC1 (racemic) [Compound 27] | < 0.05 µM | B (B: 30-50%) | > 200 µM |
| Cc1snc(-c2ccc(O[C@H]3CCC[C@H](C(=O)O)C3)cc2)c1COC(=O)N(C)C1CCCC1 (racemic) [Compound 29, (+/−)-(1S,3S)-3-(4-(4-(((cyclopentyl(methyl)carbamoyl)oxy)methyl)-5-methylisothiazol-3-yl)phenoxy)cyclohexane-1-carboxylic Acid] | < 0.05 µM | B (B: 30-50%) | > 200 µM |
| Cc1cnn(-c2ccc(O[C@H]3CCC[C@H](C(=O)O)C3)cc2)c1COC(=O)N(C)C1CCCC1 (racemic) [Compound 30, (+/−)-(1S,3S)-3-(4-(5-(((cyclopentyl(methyl)carbamoyl)oxy)methyl)-4-methyl-1H-pyrazol-1-yl)phenoxy)cyclohexanoic Acid] | < 0.05 µM | B (B: 30-50%) | > 200 µM |
| Cc1ccn(-c2ccc(O[C@H]3CCC[C@H](C(=O)O)C3)cc2)c1COC(=O)N(C)C1CCCC1 (racemic) [Compound 31] | < 0.05 µM | B (B: 30-50%) | > 200 µM |

More lines, main results first:

| IC50 [3] | SMILES | Cell migration inhibition rate (%) [1] | CC50 at 48 h [2] |
| --- | --- | --- | --- |
| 0.05 to 0.3 µM | CN(C(=O)OCc1c(-c2ccc(O[C@H]3CCC[C@H](C(=O)O)C3)c(C(F)(F)F)n2)ncn1C)C1CCCC1 (racemic) [Compound 32] | B (B: 30-50%) | > 200 µM |
| < 0.05 µM | Cc1nc(-c2c(C(F)(F)F)nn(C)c2COC(=O)N(C)C2CCCC2)ccc1O[C@H]1CCC[C@H](C(=O)O)C1 (racemic) [Compound 33] | B (B: 30-50%) | > 200 µM |
| 0.05 to 0.3 µM | CN(C(=O)OCc1c(-c2ccc(O[C@H]3CCC[C@H](C(=O)O)C3)c(F)c2)ncn1C)C1CCCC1 (racemic) [Compound 34, (+/−)-(1S,3S)-3-(4-(5-(((cyclopentyl(methyl)carbamoyl)oxy)methyl)-1-methyl-1H-imidazol-4-yl)-2-fluorophenoxy)cyclohexane-1-carboxylic Acid] | B (B: 30-50%) | > 200 µM |
| < 0.05 µM | Cc1nc(-c2noc(C)c2COC(=O)N(C)C2CCCC2)ccc1O[C@H]1CCC[C@H](C(=O)O)C1 (racemic) [Compound 38] | A (A: 50-70%) | > 200 µM |
| < 0.05 µM | Cc1nc(-c2nsc(C)c2COC(=O)N(C)C2CCCC2)ccc1O[C@H]1CCC[C@H](C(=O)O)C1 (racemic) [Compound 39] | B (B: 30-50%) | > 200 µM |
